One assay deals with T1, NHE3 (Homo sapiens, UniProt P48764).
T1 construct: expressed in transfected cells
T1 sequence (P48764 26-834): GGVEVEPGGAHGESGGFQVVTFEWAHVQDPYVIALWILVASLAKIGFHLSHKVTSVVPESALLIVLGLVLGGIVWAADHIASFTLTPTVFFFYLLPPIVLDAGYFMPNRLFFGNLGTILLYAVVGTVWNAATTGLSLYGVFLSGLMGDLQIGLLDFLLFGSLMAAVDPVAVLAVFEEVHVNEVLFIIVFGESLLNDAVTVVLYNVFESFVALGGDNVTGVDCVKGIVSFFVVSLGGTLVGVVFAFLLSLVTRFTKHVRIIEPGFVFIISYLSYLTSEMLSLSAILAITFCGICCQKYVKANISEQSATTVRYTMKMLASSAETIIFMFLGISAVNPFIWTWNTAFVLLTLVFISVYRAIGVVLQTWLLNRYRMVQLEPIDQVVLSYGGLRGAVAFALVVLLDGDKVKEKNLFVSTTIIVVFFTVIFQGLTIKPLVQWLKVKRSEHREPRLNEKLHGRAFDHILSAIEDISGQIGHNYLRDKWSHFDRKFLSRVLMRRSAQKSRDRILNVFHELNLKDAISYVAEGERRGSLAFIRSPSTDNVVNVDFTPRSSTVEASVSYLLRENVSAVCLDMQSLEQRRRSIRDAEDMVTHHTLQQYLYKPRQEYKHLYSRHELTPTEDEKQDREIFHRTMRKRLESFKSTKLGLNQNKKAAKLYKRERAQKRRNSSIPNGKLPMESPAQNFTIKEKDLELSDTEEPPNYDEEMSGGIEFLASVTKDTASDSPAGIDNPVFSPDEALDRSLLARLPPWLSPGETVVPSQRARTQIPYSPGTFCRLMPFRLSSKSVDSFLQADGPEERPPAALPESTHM
T1 sequence (Q99653 2-195 partner limits assumed): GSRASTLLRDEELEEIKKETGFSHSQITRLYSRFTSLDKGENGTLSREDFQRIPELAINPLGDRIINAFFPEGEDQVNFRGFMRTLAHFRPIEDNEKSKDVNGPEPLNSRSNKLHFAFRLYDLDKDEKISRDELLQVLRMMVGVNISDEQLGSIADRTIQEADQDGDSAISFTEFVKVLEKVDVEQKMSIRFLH
The assay is described as follows: Cell-based assay of NHE-3 activity (persistent inhibition), human. Particulars: human Persistence, 60 min incubation then washout. Put shortly:
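PS120 fibroblasts expressing human NHE3 with NHERF2 exposed to 0-30 μM compound for 60 min at RT, then washed out; cells acid-loaded by NH4Cl prepulse with BCECF-AM and Na+-free buffer. Na+-driven pH recovery started 10 min post-washout; initial rate of BCECF ratio change (FLIPR) taken as activity.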

Assay [1] deals with absorption of sodium from the intestinal lumen. The assay is described as follows: Inhibition of intestinal sodium absorption in mice. As to conditions: CD-1 mice, 15 mg/kg oral gavage twice daily; for Fecal fluid content (Δ from vehicle): day 3, change from vehicle group mean; for response vs control in vivo at 15 mg/kg: Mus musculus, 72 h, day 3, normalized to dietary sodium intake. It is filed as in vivo. Put shortly:
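Male ~8-week CD-1 mice on chow with added 0.4% inorganic phosphorous, in metabolic cages after 3-day acclimation and 24-hr baseline collection. Urine sodium by ion chromatography, dried fecal sodium by MP-AES; day-3 24-hour excretion normalized to dietary sodium intake and expressed as % of vehicle mean; diarrhea and fecal fluid also recorded.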

[2] abbreviates: read-out: Fecal Na Excretion (% of vehicle).
[3] abbreviates: read-out: Urinary Na Excretion (% of vehicle).

The results in this text go back to patent publication US11242337B2, “Compounds useful for treating gastrointestinal tract disorders” (Ardelyx, Inc., priority 2017, dated 2022).

Read-outs that look alike come from different tables or passages of the source. Bounds are passed on as bounds.

For the compound `Cc1cc(S(=O)(=O)NCCOCCOCCNC(=O)NCCCCNC(=O)NCCOCCOCCNS(=O)(=O)c2ccc(O[C@H]3c4cc(Cl)cc(Cl)c4C[C@@H]3N3CCNCC3)c(C)c2)ccc1O[C@H]1c2cc(Cl)cc(Cl)c2C[C@@H]1N1CCNCC1` [Example 32, 3-[2-(2-[2-[(4-[[(1S,2S)-4,6-Dichloro-2-(piperazin-1-yl)-2,3-dihydro-1H-inden-1-yl]oxy]-3-methylbenzene)sulfonamido]ethoxy]ethoxy)ethyl]-1-[4-([[2-(2-[2-[(4-[[(1S,2S)-4,6-dichloro-2-(piperazin-1-yl)-2,3-dihydro-1H-inden-1-yl]oxy]-3-methylbenzene)sulfonamido]ethoxy]ethoxy)ethyl]carbamoyl]amino)butyl]urea; bis(trifluoroacetic acid)], on NHE3, the “% inhibition” value was “C (>70%)” and the pIC50 result is recorded as “C (NHE3 pIC50 > 7)”. Also, the “Fecal fluid content (Δ from vehicle)” value in assay [1] was “A (<5)”. For the same compound, the response vs control in vivo at 15 mg/kg in assay [1] (setting [2]) fell in the range of 150 to 200%. Moreover, in assay [1] (setting [3]), the response vs control in vivo at 15 mg/kg lay in the range of 50 to 70%.

Regarding `O=C(NCCCCNC(=O)NCCOCCOCCNS(=O)(=O)c1ccc(O[C@H]2c3cc(Cl)cc(Cl)c3C[C@@H]2N2CCNCC2)c(F)c1)NCCOCCOCCNS(=O)(=O)c1ccc(O[C@H]2c3cc(Cl)cc(Cl)c3C[C@@H]2N2CCNCC2)c(F)c1` [Example 33, 3-[2-(2-[2-[(4-[[(1S,2S)-4,6-Dichloro-2-(piperazin-1-yl)-2,3-dihydro-1H-inden-1-yl]oxy]-3-fluorobenzene)sulfonamido]ethoxy]ethoxy)ethyl]-1-[4-[[(2-(2-[2-[(4-[[(1S,2S)-4,6-dichloro-2-(piperazin-1-yl)-2,3-dihydro-1H-inden-1-y]oxy]-3-fluorobenzene)sulfonamido]ethoxy]ethoxy)ethyl]carbamoyl]amino)butyl]urea; bis(trifluoroacetic acid)], the “% inhibition” value on NHE3 is given as “C (>70%)”. For the same compound, the “Fecal fluid content (Δ from vehicle)” value in assay [1] is given as “C (>10)”. Besides, the response vs control in vivo at 15 mg/kg was over 200% in assay [1] (setting [2]) and under 50% in assay [1] (setting [3]).

On to `Cc1cc(Cl)cc2c1C[C@H](N1CCNCC1)[C@H]2Oc1ccc(S(=O)(=O)NCCOCCOCCNC(=O)NCCCCNC(=O)NCCOCCOCCNS(=O)(=O)c2ccc(O[C@H]3c4cc(Cl)cc(C)c4C[C@@H]3N3CCNCC3)cc2)cc1` [Example 34, 3-[2-(2-[2-[(4-[[(1S,2S)-6-Chloro-4-methyl-2-(piperazin-1-yl)-2,3-dihydro-1H-inden-1-yl]oxy]benzene)sulfonamido]ethoxy]ethoxy)ethyl]-1-[4-([[2-(2-[2-[(4-[[(1S,2S)-6-chloro-4-methyl-2-(piperazin-1-yl)-2,3-dihydro-1H-inden-1-yl]oxy]benzene)sulfonamido]ethoxy]ethyl)ethyl]carbamoyl]amino)butyl]urea; bis(trifluoroacetic acid)], for which, at NHE3, the “% inhibition” value is “C (>70%)”. In assay [1], the “Fecal fluid content (Δ from vehicle)” value was “B (5-10)”. Further, the response vs control in vivo at 15 mg/kg in assay [1] (setting [2]) lay in the range of 150 to 200%; in assay [1] (setting [3]), 50 to 70%.

For the compound `Cc1cc(S(=O)(=O)NCCOCCOCCNC(=O)NCCCCNC(=O)NCCOCCOCCNS(=O)(=O)c2ccc(O[C@H]3c4cc(Cl)cc(C)c4C[C@@H]3N3CCNCC3)c(C)c2)ccc1O[C@H]1c2cc(Cl)cc(C)c2C[C@@H]1N1CCNCC1` [Example 35, 3-[2-(2-[2-[(4-[[(1S,2S)-6-Chloro-4-methyl-2-(piperazin-1-yl)-2,3-dihydro-1H-inden-1-yl]oxy]-3-methylbenzene)sulfonamido]ethoxy]ethoxy)ethyl]-1-[4-([[2-(2-[2-[(4-[[(1S,2S)-6-chloro-4-methyl-2-(piperazin-1-yl)-2,3-dihydro-1H-inden-1-yl]oxy]-3-methylbenzene)sulfonamido]ethoxy]ethoxy)ethyl]carbamoyl]amino)butyl]urea; bis(trifluoroacetic acid)], at NHE3, the “% inhibition” value was “C (>70%)” and the pIC50 entry was “C (NHE3 pIC50 > 7)”. Further, the “Fecal fluid content (Δ from vehicle)” value in assay [1] is listed as “A (<5)”. Besides, the response vs control in vivo at 15 mg/kg in assay [1] (setting [2]) is 150 to 200%. Besides, the response vs control in vivo at 15 mg/kg in assay [1] (setting [3]) was over 70%.

As to `Cc1cc(Cl)cc2c1C[C@H](N1CCNCC1)[C@H]2Oc1ccc(S(=O)(=O)NCCOCCOCCNC(=O)NCCCCNC(=O)NCCOCCOCCNS(=O)(=O)c2ccc(O[C@H]3c4cc(Cl)cc(C)c4C[C@@H]3N3CCNCC3)c(F)c2)cc1F` [Example 36, 3-[2-(2-[2-[(4-[[(1S,2S)-6-Chloro-4-methyl-2-(piperazin-1-yl)-2,3-dihydro-1H-inden-1-yl]oxy]-3-fluorobenzene)sulfonamido]ethoxy]ethoxy)ethyl]-1-[4-([[2-(2-[2-[(4-[[(1S,2S)-6-chloro-4-methyl-2-(piperazin-1-yl)-2,3-dihydro-1H-inden-1-yl]oxy]-3-fluorobenzene)sulfonamido]ethoxy]ethoxy)ethyl]carbamoyl]amino)butyl]urea; bis(trifluoroacetic acid)], at NHE3, the “% inhibition” value is “C (>70%)” and the pIC50 result was “C (NHE3 pIC50 > 7)”. Besides, the “Fecal fluid content (Δ from vehicle)” value in assay [1] is listed as “B (5-10)”. Besides, the response vs control in vivo at 15 mg/kg in assay [1] (setting [2]) lay within 150 to 200%. In assay [1] (setting [3]), the response vs control in vivo at 15 mg/kg lay in the range of 50 to 70%.

For `N#Cc1cc(Cl)cc2c1C[C@H](N1CCNCC1)[C@H]2Oc1ccc(S(=O)(=O)NCCOCCOCCNC(=O)NCCCCNC(=O)NCCOCCOCCNS(=O)(=O)c2ccc(O[C@H]3c4cc(Cl)cc(C#N)c4C[C@@H]3N3CCNCC3)cc2)cc1` [Example 41, 3-[2-(2-[2-[(4-[[(1S,2S)-6-Chloro-4-cyano-2-(piperazin-1-yl)-2,3-dihydro-1H-inden-1-yl]oxy]benzene)sulfonamido]ethoxy]ethoxy)ethyl]-1-[4-([[2-(2-[2-[(4-[[(1S,2S)-6-chloro-4-cyano-2-(piperazin-1-yl)-2,3-dihydro-1H-inden-1-yl]oxy]benzene)sulfonamido]ethoxy]ethoxy)ethyl]carbamoyl]amino)butyl]urea; bis(trifluoroacetic acid)], the “% inhibition” value at NHE3 is listed as “C (>70%)”. Besides, the pIC50 entry at NHE3 is “C (NHE3 pIC50 > 7)”. For the same compound, in assay [1], the “Fecal fluid content (Δ from vehicle)” value is reported as “B (5-10)”. Besides, the response vs control in vivo at 15 mg/kg was over 200% in assay [1] (setting [2]) and under 50% in assay [1] (setting [3]).

As to `Cc1cc(S(=O)(=O)NCCOCCOCCNC(=O)NCCCCNC(=O)NCCOCCOCCNS(=O)(=O)c2ccc(O[C@H]3c4cc(Cl)cc(C#N)c4C[C@@H]3N3CCNCC3)c(C)c2)ccc1O[C@H]1c2cc(Cl)cc(C#N)c2C[C@@H]1N1CCNCC1` [Example 42, 3-[2-(2-[2-[(4-[[(1S,2S)-6-Chloro-4-cyano-2-(piperazin-1-yl)-2,3-dihydro-1H-inden-1-yl]oxy]-3-methylbenzene)sulfonamido]ethoxy]ethoxy)ethyl]-1-[4-([[2-(2-[2-[(4-[[(1S,2S)-6-chloro-4-cyano-2-(piperazin-1-yl)-2,3-dihydro-1H-inden-1-yl]oxy]-3-methylbenzene)sulfonamido]ethoxy]ethoxy)ethyl]carbamoyl]amino)butyl]urea; bis(trifluoroacetic acid)], at NHE3, the “% inhibition” value is given as “C (>70%)” and the pIC50 entry is “C (NHE3 pIC50 > 7)”. Moreover, in assay [1], the “Fecal fluid content (Δ from vehicle)” value was “B (5-10)”. The response vs control in vivo at 15 mg/kg in assay [1] (setting [2]) was 150 to 200%. Also, the response vs control in vivo at 15 mg/kg in assay [1] (setting [3]) was under 50%.
